Target: T1, Pancreatic triacylglycerol lipase (Sus scrofa) (UniProt P00591)
T1 sequence (whole entry): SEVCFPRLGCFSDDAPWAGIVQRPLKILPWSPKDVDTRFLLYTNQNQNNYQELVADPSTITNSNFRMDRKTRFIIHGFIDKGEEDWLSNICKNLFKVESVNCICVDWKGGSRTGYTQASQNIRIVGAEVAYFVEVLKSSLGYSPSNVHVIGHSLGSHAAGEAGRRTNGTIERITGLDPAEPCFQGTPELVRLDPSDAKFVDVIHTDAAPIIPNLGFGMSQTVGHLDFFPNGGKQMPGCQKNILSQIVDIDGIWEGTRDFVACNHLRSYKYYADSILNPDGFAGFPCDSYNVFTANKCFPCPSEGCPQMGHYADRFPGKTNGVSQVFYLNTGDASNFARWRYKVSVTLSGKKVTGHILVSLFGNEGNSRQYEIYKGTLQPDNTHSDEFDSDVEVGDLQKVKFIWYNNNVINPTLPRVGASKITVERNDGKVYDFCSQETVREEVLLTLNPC
Experiment: Inhibition of porcine pancreatic lipase assessed as p-NPB substrate hydrolysis at 100 uM after 15 mins by microplate reader

Row | SMILES | inhibition
1 | COCc1ccc(C=O)n1C(C)C(=O)OC (configuration not stated) | 40%
2 | O=Cc1ccc2n1C(Cc1ccc(O)cc1)C(=O)OC2 (configuration not stated) | 70%
